Laboratory results published in ChEMBL document CHEMBL3612057, “Discovery of indolizines containing triazine moiety as new leads for the development of antitumoral agents targeting mitotic events” (2015).
Calls of active or inactive are those of the source. The calls are words filed in the database; no cut-off is given here.

Species: Ovis aries
Assay: Inhibition of sheep tubulin polymerization at 100 uM by fluorescence assay

Row | SMILES | inhibition
1 | O=C(c1ccc(Br)cc1)c1cc(-c2nc(=O)[nH]c(=O)[nH]2)c2ccccn12 | inactive
2 | COc1nc(-c2cc(C(=O)c3ccc(Br)cc3)n3ccccc23)[nH]c(=O)n1 | inactive
3 | Cn1c(-c2cc(C(=O)c3ccc(Br)cc3)n3ccccc23)nc(=O)[nH]c1=O | inactive

Continued, values first:

Row | inhibition | SMILES
4 | inactive | COc1nc(OC)nc(-c2cc(C(=O)c3ccc(-c4ccccc4)cc3)n3ccccc23)n1
5 | inactive | COc1nc(OC)nc(-c2cc(C(=O)c3ccc(C#N)cc3)n3ccccc23)n1
6 | inactive | COc1nc(OC)nc(-c2cc(C(=O)c3ccc(F)cc3)n3ccccc23)n1
7 | inactive | COc1nc(OC)nc(-c2cc(C(=O)c3ccc(Br)cc3)n3cc(C)cc(C)c23)n1
